Test results reported in patent publication US10934310B2, “Inhibitors of Bruton's tyrosine kinase and method of their use” (JANSSEN PHARMACEUTICA NV, priority 2015, dated 2021).

Biological target: unphosphorylated-BTK kinase domain (UP-BTK), GST-tagged human BTK (389-659aa) (Homo sapiens (Human), UniProt Q06187)
Assay: BTK Kinase Lanthascreen Binding Assay
Conditions: Lanthascreen binding, 60 minutes incubation; pIC50 = negative log of the IC50 in molar
Experimental: BTK Kinase Lanthascreen Binding Assay:
A BTK kinase lanthascreen binding assay monitors compound binding to unphosphorylated-BTK kinase domain (UP-BTK), by competing with a fluorescent labeled tracer. […] Data were analyzed using Xlfit™ version 5.3 from ID Business Solutions (Guildford), Microsoft Excel add-in. pIC50 refers to the negative log of the IC50 in molar.

unphosphorylated-BTK kinase domain (UP-BTK), GST-tagged human BTK (389-659aa), sequence (Q06187 389-659): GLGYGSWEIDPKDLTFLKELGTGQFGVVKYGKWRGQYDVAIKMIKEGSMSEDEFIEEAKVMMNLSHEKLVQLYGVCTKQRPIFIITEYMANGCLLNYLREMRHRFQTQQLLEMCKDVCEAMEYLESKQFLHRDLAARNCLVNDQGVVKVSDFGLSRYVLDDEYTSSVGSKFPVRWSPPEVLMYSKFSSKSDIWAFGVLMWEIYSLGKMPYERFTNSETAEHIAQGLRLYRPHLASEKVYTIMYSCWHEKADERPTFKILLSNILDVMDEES

| Compound | BTK_I_binding pIC50 |
| --- | --- |
| C=CC(=O)N[C@H]1CCCC[C@H]1NC(=O)c1sc2nccc3c2c1NC(=O)N3c1ccc(Oc2ccccn2)cc1C [Example 401, N-((1R,2S)-2-Acrylamidocyclohexyl)-5-(2-methyl-4-(pyridin-2-yloxy)phenyl)-4-oxo-4,5-dihydro-3H-1-thia-3,5,8-triazaacenaphthylene-2-carboxamide] | 6.39 |
| CC(=O)N[C@H]1CCC[C@H]1NC(=O)c1sc2nccc3c2c1NC(=O)N3c1ccc(Oc2ccccc2)nc1C (single isomer, unassigned) [Example 345, N-((1R,2S)-2-Acetamidocyclopentyl)-5-(*S)-(2-methyl-6-phenoxypyridin-3-yl)-4-oxo-4,5-dihydro-3H-1-thia-3,5,8-triazaacenaphthylene-2-carboxamide] | 6.09 |
| CCC(=O)N[C@H]1CCC[C@H]1NC(=O)c1sc2nccc3c2c1NC(=O)N3c1ccc(Oc2ccccc2)cc1 [Example 398, 4-Oxo-5-(4-phenoxyphenyl)-N-((1R,2S)-2-propionamidocyclopentyl)-4,5-dihydro-3H-1-thia-3,5,8-triazaacenaphthylene-2-carboxamide] | 6.56 |

Continued, values first:

| BTK_I_binding pIC50 | Compound |
| --- | --- |
| 6.85 | C=CC(=O)N[C@H]1CCC[C@H]1NC(=O)c1sc2nccc3c2c1NC(=O)N3c1ccc(-n2ccccc2=O)nc1C [Example 477, N-((1R,2S)-2-Acrylamidocyclopentyl)-5-(6′-methyl-2-oxo-2H-[1,2′-bipyridin]-5′-yl)-4-oxo-4,5-dihydro-3H-1-thia-3,5,8-triazaacenaphthylene-2-carboxamide] |
| 7.01 | C=CC(=O)N[C@H]1CCN(C(=O)c2sc3nccc4c3c2NC(=O)N4c2ccc(Oc3ccccc3)cc2C)C1 [Example 433, (S)—N-(1-(5-(2-Methyl-4-phenoxyphenyl)-4-oxo-4,5-dihydro-3H-1-thia-3,5,8-triazaacenaphthylene-2-carbonyl)pyrrolidin-3-yl)acrylamide] |

Same assay, conditions: compound, 50 nM Tracer 236, 2 nM anti-GST antibody, 60 minutes; pIC50 = negative log of the IC50 in molar

| Compound | BTK_I_binding pIC50 |
| --- | --- |
| Cc1cc(Oc2ccccc2)ccc1N1C(=O)Nc2c(C(=O)N[C@H]3CC[C@H](O)CC3)sc3nccc1c23 (single isomer, unassigned) [Example 85, N-((1R,4R)-4-Hydroxycyclohexyl)-5-(*S)-(2-methyl-4-phenoxyphenyl)-4-oxo-4,5-dihydro-3H-1-thia-3,5,8-triazaacenaphthylene-2-carboxamide] | 7.67 |
| CN[C@@H]1CCC[C@H]1NC(=O)c1sc2nccc3c2c1NC(=O)N3c1ccc(Oc2ccccc2)cc1C [Example 21, 5-(2-Methyl-4-phenoxyphenyl)-N-((1R,2R)-2-(methylamino)cyclopentyl)-4-oxo-4,5-dihydro-3H-1-thia-3,5,8-triazaacenaphthylene-2-carboxamide] | 6.85 |
| CNC/C=C/C(=O)N[C@H]1CC[C@@H](NC(=O)c2sc3nccc4c3c2NC(=O)N4c2ccc(Oc3ccccc3)cc2C)CC1 [Example 78, 5-(2-Methyl-4-phenoxyphenyl)-N-((1S,4S)-4-((E)-4-(methylamino)but-2-enamido)cyclohexyl)-4-oxo-4,5-dihydro-3H-1-thia-3,5,8-triazaacenaphthylene-2-carboxamide] | 6.55 |
| Cc1cc(Oc2ccccc2)ccc1N1C(=O)Nc2c(C(=O)N[C@H]3CC[C@@H](NC(=O)CN(C)C)C3)sc3nccc1c23 [Example 71, N-((1S,3R)-3-(2-(Dimethylamino)acetamido)cyclopentyl)-5-(2-methyl-4-phenoxyphenyl)-4-oxo-4,5-dihydro-3H-1-thia-3,5,8-triazaacenaphthylene-2-carboxamide] | 7.38 |
| C=CC(=O)N[C@@H]1CC[C@H](NC(=O)c2sc3nccc4c3c2NC(=O)N4c2ccc(Oc3ccccc3)cc2C)C1 (single isomer, unassigned) [Example 101, N-((1S,3R)-3-Acrylamidocyclopentyl)-5-(*S)-(2-methyl-4-phenoxyphenyl)-4-oxo-4,5-dihydro-3H-1-thia-3,5,8-triazaacenaphthylene-2-carboxamide] | 7.95 |
| C=CC(=O)N[C@H]1CCC[C@H]1NC(=O)c1sc2nccc3c2c1NC(=O)N3c1ccc(OC(C)C)cc1C (single isomer, unassigned) [Example 165, N-((1R,2S)-2-Acrylamidocyclopentyl)-5-(*R)-(4-isopropoxy-2-methylphenyl)-4-oxo-4,5-dihydro-3H-1-thia-3,5,8-triazaacenaphthylene-2-carboxamide] | 8.30 |

Results, then the molecule that gave them:

| BTK_I_binding pIC50 | Compound |
| --- | --- |
| 7.89 | CC(=O)N[C@@H]1CC[C@H](NC(=O)c2sc3nccc4c3c2NC(=O)N4c2ccc(Oc3ccccc3)cc2C)C1 (relative stereo) [Example 88, N-((1S,3R)-3-Acetamidocyclopentyl)-5-(*S)-(2-methyl-4-phenoxyphenyl)-4-oxo-4,5-dihydro-3H-1-thia-3,5,8-triazaacenaphthylene-2-carboxamide] |
| 6.01 | CCC(=O)N[C@@H]1CCCC[C@H]1NC(=O)c1sc2nccc3c2c1NC(=O)N3c1ccc(Oc2ccccc2)cc1C [Example 52, 5-(2-Methyl-4-phenoxyphenyl)-4-oxo-N-((1R,2R)-2-propionamidocyclohexyl)-4,5-dihydro-3H-1-thia-3,5,8-triazaacenaphthylene-2-carboxamide] |
| 6.69 | N[C@H]1CC[C@@H](NC(=O)c2sc3nccc4c3c2NC(=O)N4c2ccc(Oc3ccccc3)cc2)CC1 [Example 145, N-((1S,4S)-4-Aminocyclohexyl)-4-oxo-5-(4-phenoxyphenyl)-4,5-dihydro-3H-1-thia-3,5,8-triazaacenaphthylene-2-carboxamide] |
| 6.85 | C=CC(=O)N[C@H]1CC[C@H](NC(=O)c2sc3nccc4c3c2NC(=O)N4c2ccc(Oc3ccccc3)cc2C)C1 (single isomer, unassigned) [Example 226, N-((1S,3S)-3-Acrylamidocyclopentyl)-5-(*S)-(2-methyl-4-phenoxyphenyl)-4-oxo-4,5-dihydro-3H-1-thia-3,5,8-triazaacenaphthylene-2-carboxamide] |
| 7.03 | Cc1cc(Oc2ccccc2)ccc1N1C(=O)Nc2c(C(=O)N[C@@H]3CCC[C@@H]3N)sc3nccc1c23 [Example 12, N-((1R,2S)-2-Aminocyclopentyl)-5-(2-methyl-4-phenoxyphenyl)-4-oxo-4,5-dihydro-3H-1-thia-3,5,8-triazaacenaphthylene-2-carboxamide] |
| 6.55 | Cc1nc(Oc2ccccc2)ncc1N1C(=O)Nc2c(C(=O)N[C@@H]3CCC[C@@H]3N)sc3nccc1c23 (single isomer, unassigned) [Example 254, N-((1R,2S)-2-aminocyclopentyl)-5-(*)-(4-methyl-2-phenoxypyrimidin-5-yl)-4-oxo-4,5-dihydro-3H-1-thia-3,5,8-triazaacenaphthylene-2-carboxamide] |
| 8.32 | C=CC(=O)N[C@H]1CCC[C@H]1NC(=O)c1sc2nccc3c2c1NC(=O)N3c1cnc(Oc2ccccc2)cn1 [Example 201, N-((1R,2S)-2-Acrylamidocyclopentyl)-4-oxo-5-(5-phenoxypyrazin-2-yl)-4,5-dihydro-3H-1-thia-3,5,8-triazaacenaphthylene-2-carboxamide] |
| 6.66 | Cc1cc(Oc2ccccc2)ccc1N1C(=O)Nc2c(C(=O)N[C@H]3CC[C@@H](N)CC3)sc3nccc1c23 [Example 25, N-((1S,4S)-4-Aminocyclohexyl)-5-(2-methyl-4-phenoxyphenyl)-4-oxo-4,5-dihydro-3H-1-thia-3,5,8-triazaacenaphthylene-2-carboxamide] |
| 8.09 | C=CC(=O)N[C@H]1CCC[C@H]1NC(=O)c1sc2nccc3c2c1NC(=O)N3c1cccc(-c2ccccc2)c1 [Example 193, 5-([1,1′-Biphenyl]-3-yl)-N-((1R,2S)-2-acrylamidocyclopentyl)-4-oxo-4,5-dihydro-3H-1-thia-3,5,8-triazaacenaphthylene-2-carboxamide] |
| 6.56 | C=CC(=O)N[C@H]1CCC[C@@H](NC(=O)c2sc3nccc4c3c2NC(=O)N4c2ccc(Oc3ccccc3)cc2C)C1 (single isomer, unassigned) [Example 237, N-((1R,3S)-3-Acrylamidocyclohexyl)-5-(*S)-(2-methyl-4-phenoxyphenyl)-4-oxo-4,5-dihydro-3H-1-thia-3,5,8-triazaacenaphthylene-2-carboxamide] |
| 6.90 | N[C@H]1CCC[C@H]1NC(=O)c1sc2nccc3c2c1NC(=O)N3c1cccc(-c2ccccc2)c1 [Example 249, 5-([1,1′-Biphenyl]-3-yl)-N-((1R,2S)-2-aminocyclopentyl)-4-oxo-4,5-dihydro-3H-1-thia-3,5,8-triazaacenaphthylene-2-carboxamide] |

Same assay, conditions: read-out: BTK_I_binding pIC50 (converted)

| IC50 [µM] | Compound |
| --- | --- |
| 0.11 | Cc1cc(Oc2ccccc2)ccc1N1C(=O)Nc2c(C(=O)NC3CCCCC3O)sc3nccc1c23 (racemic) [Example 27, N-((1RS,2RS)-2-Hydroxycyclohexyl)-5-(2-methyl-4-phenoxyphenyl)-4-oxo-4,5-dihydro-3H-1-thia-3,5,8-triazaacenaphthylene-2-carboxamide] |
| > 1 | N[C@H]1CCC[C@H]1NC(=O)c1sc2nccc3c2c1NC(=O)N3c1ccc(OC2CCOCC2)cc1 [Example 288, N-((1R,2S)-2-Aminocyclopentyl)-4-oxo-5-(4-((tetrahydro-2H-pyran-4-yl)oxy)phenyl)-4,5-dihydro-3H-1-thia-3,5,8-triazaacenaphthylene-2-carboxamide] |
| 0.234 | N[C@@H]1CC[C@@H](NC(=O)c2sc3nccc4c3c2NC(=O)N4c2ccc(Oc3ccccc3)cc2)C1 (racemic) [Example 147, trans-N-((1RS,3RS)-3-Aminocyclopentyl)-4-oxo-5-(4-phenoxyphenyl)-4,5-dihydro-3H-1-thia-3,5,8-triazaacenaphthylene-2-carboxamide] |
